Broadly, the MIC is the smallest concentration in the dilution series that meets the test's criterion for growth inhibition.

The text below walks through data of patent US6962909B2, “Treatment of neovascularization disorders with squalimine” (Genaera Corporation, priority 1995, dated 2005).

Values after ≈ are worked out from the molar mass of the structure shown.

Test [1] relates to P. aerug. Put plainly: Antibiotic activity, MIC.
In test [2] the test system is S. aureus. Kind of test: Antibiotic activity, MIC. Type of test: cell-based. The note with it: Staphylococcus aureus.
Test [3] concerns E. coli. Kind of test: Antibiotic activity, MIC. Type of test: cell-based. The note with it: Escherichia coli.
In test [4] the test system is C. albicans. Put plainly: Antibiotic activity, MIC. The note with it: Candida albicans.
Test [5] deals with Stage 59-60 Xenopus tadpoles. Kind of test: Xenopus tadpole assay. The class given is in vivo, Xenopus laevis. The conditions noted are these: 10 μg/ml in water. The text has this: A newly developed assay employing tadpoles, preferably Xenopus laevis Stages 59-60, were employed to study the effect of a compound by monitoring capillary occlusion in the tadpole's tail. […] The compounds of the invention affect the shape, viability and integrity of the embryonic tissues while not affecting the adult tissues, providing a powerful, highly specific screen. For example, substances that destroy all of the animal's epithelium, both adult and embryonic, could be regarded as toxic.
In this assay, tadpoles are introduced into Petri dishes containing a solution of the test compound in distilled water, preferably about 100 ml. The preferred concentration of the test compound is from about 1 μg/ml to about 10 μg/ml. The volume of liquid is sufficient for the animal to swim freely and drink from the solution. Thus, the effect observed results from oral absorption and subsequent systemic distribution of the agent. If the volume of liquid is not sufficient to permit oral intake, the effects that are observed would result from absorption through the surface epithelium. Thus, this simple assay can identify if an compound has characteristics of oral availability.
After an amount of time, typically about 60 minutes, the occlusion of blood flow through capillaries in the tadpole's tail are observed under an inverted microscope at a magnification of roughly 100×.
The tadpole assay described above provides an advantageous way to determine the pharmacological targets of each steroid when introduced into a mammal, and to determine pharmacological categories into which synthetic compounds belong. In the assay, each of the steroids was dissolved in 100 ml of distilled water at a concentration of 10 μg/ml. Stage 59-60 Xenopus tadpoles were introduced and evaluated by light microscopy and gross observation 1 hour later.

For test [6], the system named is vitelline capillaries of 3- to 5-day chick embryo. Put plainly: Chick embryo vitelline capillary regression assay. The class given is in vivo. Details: key to Vascular reactivity (capillary regression): + = Vascular reactivity; 0 = No vascular reactivity; +/− = Equivocal reactivity. The note with it: 60 minutes. The method, then:
Using the chick embryo vitelline capillaries assay, compounds were tested for their ability to induce capillary regression. Each compound was applied in 0.1 ml of 15% Ficol 400 and PBS onto the embryo, and vascular regression was assessed after 60 minutes.
The 3-day chick embryo consists of an embryonic disc from which numerous vessels emerge and return, forming a “figure 8”-shaped structure—the embryo in the center with vascular loops extending outward over both poles. […] Following a lag period of around 15 minutes, the constriction of continuity between capillary and secondary vessels, generally on the “venous” side, was observed. Continued pulsatile blood flow progressed, resulting in a “swelling” of the blind tube, followed by a pinching off of the remaining connection and formation of an enclosed vascular sac resembling a “blood island.” This process progressed until only the largest vessels remained intact.

Test [7] concerns human microvascular cells. Kind of test: Endothelial cord formation assay. Further: key: + = Inhibition of angiogenesis; − = No inhibition of angiogenesis; T = Toxic; *= cell rounding @ 10 µg/ml. Type of test: cell-based. The text has this: Endothelial cells have the capacity in vitro to form tubular aggregates resembling capillaries in various early stages of formation. This conversion occurs under relatively specific conditions, in which essential growth factors along with an effective substratum are provided. It has been shown that both the interaction of growth factors with the endothelial cell and its attachment to a substratum activate the NHE. The activation of this exchanger is believed to be required for subsequent morphologic transformation of the endothelial cell into a multicellular tubular structure.
To assess the effect of compounds on the cord-like structures formed by human microvascular cells when plated in the presence of VGEF (Vascular Endothelial Growth Factor) and basic fibroblast growth factor on a collagen matrix, a standard cord formation assay was used.

Consider `CC(C)CCCC(C)[C@H]1CCC2C3CC[C@H]4C[C@H](NCCCNCCCCN)CC[C@]4(C)C3CC[C@@]21C` (stereo partly drawn), for which the MIC in test [1] was 128 µg/mL (≈ 248 µM); in test [2], 2 to 4 µg/mL (≈ 3.88 to 7.75 µM); in test [3], 128 µg/mL (≈ 248 µM); in test [4], 128 µg/mL (≈ 248 µM).
`COC(=O)CCC(C)[C@H]1CCC2C3C[C@@H](O)[C@H]4C[C@H](NCCCNCCCCNCCCN)CC[C@]4(C)C3CC[C@@]21C` (stereo partly drawn) [Compound 465]: in test [5], the “Pharmacological category in tadpole assay (similarity to a reference steroid)” value (shortened to “Pharmacological category”) is “pharmacologic activity similar to that seen for FX 3”.
`C[C@@H](O)C1CCC2C3CC[C@H]4C[C@@H](NCCCNCCCCN)CC[C@]4(C)C3CC[C@@]21C` (stereo partly drawn): the MIC is 256 µg/mL (≈ 572 µM) in test [1], 4 µg/mL (≈ 8.93 µM) in test [2], 32 to 64 µg/mL (≈ 71.5 to 143 µM) in test [3] and 64 µg/mL (≈ 143 µM) in test [4].
On to `CC(CCC(=O)C(C)(C)OS(=O)(=O)O)[C@H]1CCC2C3C(CC[C@@]21C)[C@@]1(C)CC[C@H](NCCCNCCCCN)C[C@@H]1C[C@H]3O` (stereo partly drawn) [FX1A], for which, in test [5] (about 1 hour), the “Pharmacological response observed in tadpole” value is listed as “fecal elimination is dramatically increased”.
With `CC(C)CCCC(C)[C@H]1CCC2C3CC[C@H]4C[C@@H](NCCCNCCCCN)CC[C@]4(C)C3CC[C@@]21C` (stereo partly drawn), the MIC in test [1] is 128 µg/mL (≈ 248 µM); in test [2], 8 µg/mL (≈ 15.5 µM); in test [3], 128 to 256 µg/mL (≈ 248 to 496 µM); in test [4], 256 µg/mL (≈ 496 µM).
Consider `CC(C)CCCC(C)[C@H]1CCC2C3C(CC[C@@]21C)[C@@]1(C)CC[C@H](NCCCNCCCCN)C[C@@H]1C[C@H]3O` (stereo partly drawn) [Compound 371], for which the “Pharmacological category” value in test [5] is “effects like those produced by compound 1436”. Besides, the “Vascular reactivity (capillary regression)” value (from here on “Vascular reactivity”) is reported as 0 in test [6] (0.001 μg applied); 0 in test [6] (0.01 μg applied); 0 in test [6] (0.1 μg applied); “+/−” in test [6] (1 μg applied); “+” in test [6] (10 μg applied).
For the compound `COC(=O)CCC(C)[C@H]1CCC2C3C(CC[C@@]21C)[C@@]1(C)CC[C@H](NCCCNCCCCN)C[C@@H]1C[C@H]3O` (stereo partly drawn), the MIC in test [1] was 64 µg/mL (≈ 120 µM); in test [2] it was 4 to 8 µg/mL (≈ 7.49 to 15 µM); in test [3] it was 32 µg/mL (≈ 59.9 µM); in test [4], 32 µg/mL (≈ 59.9 µM).
Consider `C=C(C)C(=O)CCC(C)[C@H]1CCC2C3C(CC[C@@]21C)[C@@]1(C)CC[C@H](NCCCNCCCCN)C[C@@H]1C[C@H]3O` (stereo partly drawn), for which the values for the MIC in test [1], in test [2] and in test [3] were 128 µg/mL (≈ 235 µM), 4 µg/mL (≈ 7.35 µM) and 32 µg/mL (≈ 58.8 µM), respectively.
With `CC(CCC(=O)O)[C@H]1CCC2C3C(CC[C@@]21C)[C@@]1(C)CC[C@@H](NCCCNCCCCNCCCN)C[C@H]1C[C@H]3O` (stereo partly drawn) [Compound 412], the “Pharmacological category” value in test [5] was “pharmacologic activity similar to that seen for FX 3”. Also, the results for the “Effect on endothelial cord formation” value in test [7] (0.1 μg/ml), in test [7] (1.0 μg/ml) and in test [7] (10.0 μg/ml) were “−”, “−” and “+”, respectively. Further, the “Vascular reactivity” value in test [6] (0.001 μg applied) is 0; in test [6] (0.01 μg applied) it was 0; in test [6] (0.1 μg applied) it was 0; in test [6] (1 μg applied) it was “+”.
As to `CC(C)C(CCC(C)[C@H]1CCC2C3C(CC[C@@]21C)[C@@]1(C)CC[C@@H](NCCCNCCCCN)C[C@@H]1C[C@H]3O)OS(=O)(=O)O` (stereo partly drawn), the minimum inhibitory concentration (MIC) in test [1] was 16 µg/mL (≈ 25.5 µM); in test [2], 2 to 4 µg/mL (≈ 3.18 to 6.37 µM); in test [3] it was 4 to 8 µg/mL (≈ 6.37 to 12.7 µM); in test [4] it was 16 µg/mL (≈ 25.5 µM).
With `COC(=O)CCC(C)[C@H]1CCC2C3C(CC[C@@]21C)[C@@]1(C)CC[C@@H](NCCN)C[C@H]1C[C@H]3O` (stereo partly drawn) [Compound 410], the “Pharmacological category” value in test [5] is recorded as “functionally similar to compound 1437”. Moreover, the “Effect on endothelial cord formation” value in test [7] (0.1 μg/ml) was “−”; in test [7] (1.0 μg/ml) it was “+”. Further, the “Vascular reactivity” value in test [6] (0.001 μg applied) is given as 0; in test [6] (0.01 μg applied), “+/−”; in test [6] (0.1 μg applied), “+/−”; in test [6] (1 μg applied), “+”.
`COC(=O)CCC(C)[C@H]1CCC2C3C(CC[C@@]21C)[C@@]1(C)CC[C@H](NCCN)C[C@H]1C[C@H]3O` (stereo partly drawn) [Compound 409]: in test [5], the “Pharmacological category” value is listed as “functionally similar to compound 1437”. Moreover, the “Vascular reactivity” value in test [6] (1 μg applied) worked out at 0.
As for `COC(=O)CCC(C)[C@H]1CCC2C3CC[C@@H]4C[C@H](NCCN)CC[C@]4(C)C3C[C@H](O)[C@@]21C` (stereo partly drawn) [Compound 416], in test [5], the “Pharmacological category” value was “functionally similar to compound 1437”.
In the case of `CC(CCC(=O)O)[C@H]1CCC2C3C(CC[C@@]21C)[C@@]1(C)CC[C@@H](NCCN)C[C@H]1C[C@H]3O` (stereo partly drawn) [Compound 414], in test [5], the “Pharmacological category” value is “pharmacologic activity similar to Fraction 1”. Also, in test [6] (1 μg applied), the “Vascular reactivity” value came out at 0.
As for `CC(C)CCCC(C)[C@H]1CCC2C3C(CC[C@@]21C)[C@@]1(C)CC[C@@H](NCCCNCCCCN)C[C@@H]1C[C@H]3O` (stereo partly drawn) [Compound 370], the “Pharmacological category” value in test [5] was “pharmacologic activity similar to that seen for FX 3”.
Still for that read-out and setting: the value for `COC(=O)CCC(C)[C@H]1CCC2C3C[C@@H](O)[C@H]4C[C@H](NCCN)CC[C@]4(C)C3CC[C@@]21C` (stereo partly drawn) [Compound 431] was “functionally similar to compound 1437”.
As to `CC(CCC(=O)O)[C@H]1CCC2C3C(CC[C@@]21C)[C@@]1(C)CC[C@H](NCCCNCCCCNCCCN)C[C@H]1C[C@H]3O` (stereo partly drawn) [Compound 413], the “Pharmacological category” value in test [5] is listed as “effects like those produced by compound 1436”. In addition, the “Effect on endothelial cord formation” value in test [7] (0.1 μg/ml) is “−”; in test [7] (1.0 μg/ml) it was “−”; in test [7] (10.0 μg/ml) it was “+”. For the same compound, the “Vascular reactivity” value in test [6] (1 μg applied) is 0.
Take `COC(=O)CCC(C)[C@H]1CCC2C3C[C@@H](O)[C@H]4C[C@@H](NCCN)CC[C@]4(C)C3CC[C@@]21C` (stereo partly drawn) [Compound 432]: in test [5], the “Pharmacological category” value was “functionally similar to compound 1437”. Moreover, the “Effect on endothelial cord formation” value in test [7] (1.0 μg/ml) and in test [7] (10.0 μg/ml) was “−” throughout.
In the case of `CC(C)CCCC(C)[C@H]1CCC2C3C(CC[C@@]21C)[C@@]1(C)CC[C@@H](N)C[C@@H]1C[C@H]3O` (stereo partly drawn), the MIC in test [1] is greater than 256 µg/mL; in test [2], 2 µg/mL (≈ 4.95 µM); in test [3], greater than 256 µg/mL.
For the compound `COC(=O)CCC(C)[C@H]1CCC2C3C[C@@H](O)[C@H]4C[C@@H](NCCCNCCCCNCCCN)CC[C@]4(C)C3CC[C@@]21C` (stereo partly drawn) [Compound 466], the “Pharmacological category” value in test [5] is given as “pharmacologic activity similar to that seen for FX 3”.
In the case of `COC(=O)CCC(C)[C@H]1CCC2C3CC[C@H]4C[C@@H](NCCCNCCCCNCCCN)CC[C@]4(C)C3CC[C@@]21C` (stereo partly drawn) [Compound 459], in test [5], the “Pharmacological category” value is “pharmacologic activity similar to that seen for FX 3”.
On the same count and under the same terms, the value for `COC(=O)CCC(C)[C@H]1CCC2C3CC[C@H]4C[C@H](NCCCNCCCCNCCCN)CC[C@]4(C)C3CC[C@@]21C` (stereo partly drawn) [Compound 458] was “pharmacologic activity similar to that seen for FX 3”; that for `CC(CCC(=O)O)[C@H]1CCC2C3C[C@@H](O)[C@H]4C[C@@H](NCCN)CC[C@]4(C)C3CC[C@@]21C` (stereo partly drawn) [Compound 433] was “functionally similar to compound 1437”; that for `CC(C)CCCC(C)[C@H]1CCC2C3C(CC[C@@]21C)[C@@]1(C)CC[C@@H](N)C[C@@H]1C[C@H]3O` (stereo partly drawn) [Compound 1363] was “pharmacologic activity similar to Fraction 1”.
